Measured values published in US10918716B2, “Triple combination therapy for treating Crohn's disease” (Millennium Pharmaceuticals, Inc., priority 2016, dated 2021).

Assays:
patients with CD = details: cited from earlier work
lymphotoxin (TNF-β) = biological target: T1, lymphotoxin (TNF-β) (Homo sapiens, UniProt P01374); details: cited from earlier work
T1 sequence (P01374 35-205): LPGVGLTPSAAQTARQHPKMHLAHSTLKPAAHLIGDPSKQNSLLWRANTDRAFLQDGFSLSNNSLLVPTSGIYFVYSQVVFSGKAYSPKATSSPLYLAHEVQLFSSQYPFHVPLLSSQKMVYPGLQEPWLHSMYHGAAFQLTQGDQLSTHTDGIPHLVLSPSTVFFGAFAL

α4β7 receptor = biological target: T2, α4β7 receptor (Homo sapiens, UniProt P13612+P26010); assay: pharmacodynamics (α4β7 receptor saturation) after multiple-dose administration; format: in vivo; details: following the initial dose
T2 construct: endogenous in cells; host or cells: lymphocytes of patients with CD or UC (in vivo)
Experimental: (§1) In previous studies, single-dose pharmacokinetics, pharmacodynamics (α4β7 receptor saturation), safety, and tolerability of vedolizumab were investigated over a dose range of 0.2 to 10 mg/kg in healthy volunteers (intravenous [IV] infusion) (unpublished data). After reaching peak concentrations, vedolizumab serum concentrations fell in a generally biexponential fashion until concentrations reached approximately 1 to 10 ng/mL. Thereafter, concentrations appeared to fall in a nonlinear fashion. The multiple-dose pharmacokinetics and pharmacodynamics of vedolizumab have been investigated following IV infusions of 0.5 and 2 mg/kg in patients with CD and infusion of 2, 6, and 10 mg/kg in patients with UC.

[1] = multiple-dose pharmacokinetics of vedolizumab, IV infusion, patients with UC; format: in vivo, human; details: dose range 2 to 10 mg/kg
Experimental: as §1

| Substance | maintaining clinical remission (patients with CD; 40 mg weekly or every other week, patients with CD who responded to adalimumab induction therapy) | corticosteroid-sparing effects (patients with CD; patients with CD) | binding or inactivation of lymphotoxin (TNF-β) (lymphotoxin (TNF-β)) | α4β7 receptor saturation (α4β7 receptor) | pharmacokinetics dose linearity [1] |
| --- | --- | --- | --- | --- | --- |
| Adalimumab | effective | corticosteroid-sparing effects | does not bind or inactivate | – | – |
| vedolizumab: humanized antibody (Ig) G1 mAb directed against the human lymphocyte integrin α4β7; CAS 943609-66-3 | – | – | – | rapid and near complete | generally linear |
